Results on 18 molecules are retold here after patent US20250171432A1, “COMPOUNDS AND METHODS OF USE” (Tango Therapeutics, Inc., priority 2022, published 2025).

Common to all, as to format: cell-based
Assay [1] concerns SDMA (PRMT5 activity) in HAP1 MTAP-intact cell line. Nature of the assay: SDMA in-cell western assay, HAP1 MTAP-intact. To be noted: Homo sapiens, HAP1, 24 h, SDMA in-cell western, HAP1 MTAP-intact cells, 24 hours compound incubation.
The subject of assay [2] is SDMA (PRMT5 activity) in HAP1 MTAP-deleted cell line. Nature of the assay: SDMA in-cell western assay, HAP1 MTAP-deleted. To be noted: for IC50 / IC90: Homo sapiens, SDMA in-cell western, HAP1 MTAP-deleted cells, 24 hours compound incubation; for Hap1 MTAP intact/deleted ratio: ratio of SDMA IC50 in HAP1 MTAP-intact to HAP1 MTAP-deleted cell line.
In assay [3] the test system is HAP1 MTAP-deleted cell line. Description: Viability assay (CellTiter-Glo), HAP1 MTAP-deleted. To be noted: Homo sapiens, 168 h, HAP1 MTAP-deleted cells, 7 days. The gist of the method:
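HAP1 MTAP-deleted and MTAP-intact cells seeded, then dosed next day (n=3, 0.2% DMSO) and grown 7 days. Viability by CellTiter-Glo luminescence, expressed as % of DMSO control per cell line.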

Usually IC50 stands for the concentration that inhibits the measured activity by half. Read a high IC50 as a need for much substance. As a reminder, the IC90 is the point of the concentration-response curve where the effect stands at 90%. Read a low IC90 as greater potency. With `CCc1cc(NC(=O)C(=O)N2C[C@@H](C)CC[C@@H]2c2ccc3sc([C@H]4C[C@@H]5CN(C)C[C@@H]5C4)nc3c2)cnc1N` (single isomer, unassigned) [Compound 33], the IC50 in assay [1] is over 50 nM; in assay [2], under 5 nM; in assay [3], under 100 nM. The same molecule displayed an IC90 in assay [2] of under 75 nM. Besides, the “Hap1 MTAP intact/deleted ratio” value in assay [2] was “A (“A” indicates an IC50 ratio greater than or equal to 30 fold)”.
In turn, `CCc1cc(NC(=O)C(=O)N2C[C@@H](C)CC[C@@H]2c2ccc3sc(C(C)CN4CCCC4)nc3c2)cnc1N` (single isomer, unassigned) [Compound 2] displayed an IC50 in assay [1] of 5 to 50 nM. Moreover, in assay [2], the IC50 was under 5 nM, the concentration for an effect of 90% (IC90) was under 75 nM and the “Hap1 MTAP intact/deleted ratio” value is listed as “B (“B” indicates an IC50 ratio greater than or equal to 15 fold but lower than 30 fold)”. Further, the IC50 in assay [3] was under 100 nM.
Regarding `COc1ncc(NC(=O)C(=O)N2C[C@@H](C)CC[C@@H]2c2ccc3sc(C45CCN(CC4)C5)nc3c2)cc1C(N)=O` [Compound 81, 5-(2-((2R,5S)-2-(2-(1-azabicyclo[2.2.1]heptan-4-yl)benzo[d]thiazol-5-yl)-5-methylpiperidin-1-yl)-2-oxoacetamido)-2-methoxynicotinamide], in assay [1], the concentration for half-maximal inhibition (IC50) is over 50 nM. Besides, in assay [2], the IC50 is under 5 nM, the IC90 is under 75 nM and the “Hap1 MTAP intact/deleted ratio” value is listed as “A (“A” indicates an IC50 ratio greater than or equal to 30 fold)”. In assay [3], the IC50 is under 100 nM.
For the molecule `COc1ncc(NC(=O)C(=O)N2C[C@@H](C)CC[C@@H]2c2cccc(OC[C@@H]3CCCN3C)c2)cc1C(N)=O` [Compound 26, 2-methoxy-5-(2-((2R,5S)-5-methyl-2-(3-(((S)-1-methylpyrrolidin-2-yl)methoxy)phenyl)piperidin-1-yl)-2-oxoacetamido)nicotinamide], the IC50 in assay [1] is over 50 nM; in assay [2] it was 5 to 50 nM; in assay [3], 100 to 1000 nM. Also, the IC90 in assay [2] is over 125 nM. Besides, the “Hap1 MTAP intact/deleted ratio” value in assay [2] is listed as “A (“A” indicates an IC50 ratio greater than or equal to 30 fold)”.
Turning to `CCc1cc(NC(=O)C(=O)N2C[C@@H](C)CC[C@@H]2c2ccc3cn(C4CCCN(C)C4)nc3c2)cnc1N` (single isomer, unassigned) [Compound 80], the IC50 in assay [1] is 5 to 50 nM; in assay [2], under 5 nM; in assay [3], under 100 nM. Besides, the IC90 in assay [2] was under 75 nM. In addition, in assay [2], the “Hap1 MTAP intact/deleted ratio” value is recorded as “C (“C” indicates an IC50 ratio of less than 15 fold)”.
Regarding `COc1ncc(NC(=O)C(=O)N2C[C@@H](C)CC[C@@H]2c2ccc3sc([C@@H]4C[C@@H]5CN(C)C[C@@H]5C4)nc3c2)cc1C(N)=O` (single isomer, unassigned) [Compound 82], the figures for the IC50 in assay [1], in assay [2] and in assay [3] were over 50 nM, under 5 nM and under 100 nM, respectively. Moreover, the IC90 in assay [2] is under 75 nM. In addition, the “Hap1 MTAP intact/deleted ratio” value in assay [2] was “A (“A” indicates an IC50 ratio greater than or equal to 30 fold)”.
For `CCc1cc(NC(=O)C(=O)N2C[C@@H](C)CC[C@@H]2c2ccc3cn([C@@H]4C[C@@H](C)CN(C)C4)nc3c2)cnc1N` (relative stereo) [Compound 60, N-(6-amino-5-ethylpyridin-3-yl)-2-((2R,5S)-2-(2-(1,5-dimethylpiperidin-3-yl)-2H-indazol-6-yl)-5-methylpiperidin-1-yl)-2-oxoacetamide], the IC50 in assay [1] was over 50 nM; in assay [2] it was under 5 nM; in assay [3], under 100 nM. For the same molecule, in assay [2], the IC90 was under 75 nM. Further, the “Hap1 MTAP intact/deleted ratio” value in assay [2] is reported as “A (“A” indicates an IC50 ratio greater than or equal to 30 fold)”.
In the same order, the values of `CCc1cc(NC(=O)C(=O)N2C[C@@H](C)CC[C@@H]2c2ccc3sc([C@H]4C[C@H](N(C)C)C4)nc3c2)cnc1N` (single isomer, unassigned) [Compound 43] are over 50 nM, under 5 nM, under 100 nM, under 75 nM and “A (“A” indicates an IC50 ratio greater than or equal to 30 fold)”.
In assay [1], `COc1ncc(NC(=O)C(=O)N2C[C@@H](C)CC[C@@H]2c2ccc3sc(C4CCNCC4)nc3c2)cc1C(N)=O` [Compound 52, 2-methoxy-5-(2-((2R,5S)-5-methyl-2-(2-(piperidin-4-yl)benzo[d]thiazol-5-yl)piperidin-1-yl)-2-oxoacetamido)nicotinamide] came in with an IC50 of over 50 nM. Also, in assay [2], the IC50 lay within 5 to 50 nM, the IC90 is 75 to 125 nM and the “Hap1 MTAP intact/deleted ratio” value is “B (“B” indicates an IC50 ratio greater than or equal to 15 fold but lower than 30 fold)”. Moreover, in assay [3], the IC50 was 100 to 1000 nM.
Molecule `COc1ncc(NC(=O)C(=O)N2C[C@@H](C)CC[C@@H]2c2ccc3sc([C@@H](C)CN(C)C)nc3c2)cc1C(N)=O` [Compound 14, 2-methoxy-5-[[2-oxo-2-[(2R,5S)-5-methyl-2-[2-[(^1R)-2-(dimethylamino)-1-methyl-ethyl]-1,3-benzothiazol-5-yl]-1-piperidyl]acetyl]amino]pyridine-3-carboxamide] returned an IC50 in assay [1] of 5 to 50 nM. Besides, in assay [2], the IC50 is under 5 nM, the IC90 is under 75 nM and the “Hap1 MTAP intact/deleted ratio” value is on record as “B (“B” indicates an IC50 ratio greater than or equal to 15 fold but lower than 30 fold)”. In assay [3], the IC50 is under 100 nM.
In the same order, the values of `COc1ncc(NC(=O)C(=O)N2C[C@@H](C)CC[C@@H]2c2ccc3sc([C@@H]4CN(C)CC4(C)C)nc3c2)cc1C(N)=O` (single isomer, unassigned) [Compound 74] are 5 to 50 nM, under 5 nM, under 75 nM, “B (“B” indicates an IC50 ratio greater than or equal to 15 fold but lower than 30 fold)” and under 100 nM.
In the same order, the values of `CCc1cc(NC(=O)C(=O)N2C[C@@H](C)CC[C@@H]2c2cccc(OC[C@H](C)N(C)C)c2)cnc1N` [Compound 66, N-(6-amino-5-ethylpyridin-3-yl)-2-((2R,5S)-2-(3-((S)-2-(dimethylamino)propoxy)phenyl)-5-methylpiperidin-1-yl)-2-oxoacetamide] are over 50 nM, under 5 nM, under 75 nM, “A (“A” indicates an IC50 ratio greater than or equal to 30 fold)” and under 100 nM.
With `CCc1cc(NC(=O)C(=O)N2C[C@@H](C)CC[C@@H]2c2ccc3sc([C@H]4CN(C)CC(C)(C)C4)nc3c2)cnc1N` (single isomer, unassigned) [Compound 45], in assay [1], the IC50 lay within 5 to 50 nM. Moreover, in assay [2], the IC50 was under 5 nM, the IC90 was under 75 nM and the “Hap1 MTAP intact/deleted ratio” value was “B (“B” indicates an IC50 ratio greater than or equal to 15 fold but lower than 30 fold)”. Moreover, the IC50 in assay [3] is under 100 nM.
In assay [1], `CCc1cc(NC(=O)C(=O)N2C[C@@H](C)CC[C@@H]2c2ccc3sc([C@@H]4C[C@H](C)N(C)C4)nc3c2)cnc1N` (racemic) [Compound 16, N-(6-amino-5-ethyl-3-pyridyl)-2-oxo-2-[(2R,5S)-5-methyl-2-[2-[rac-(3S,5R)-1,5-dimethylpyrrolidin-3-yl]-1,3-benzothiazol-5-yl]-1-piperidyl]acetamide] had an IC50 of over 50 nM. Besides, in assay [2], the IC50 is under 5 nM, the IC90 is under 75 nM and the “Hap1 MTAP intact/deleted ratio” value is “A (“A” indicates an IC50 ratio greater than or equal to 30 fold)”. In assay [3], this molecule displayed an IC50 of under 100 nM.
Regarding `COc1ncc(NC(=O)C(=O)N2C[C@@H](C)CC[C@@H]2c2ccc3sc([C@H]4CCN(C)C[C@@H]4OC)nc3c2)cc1C(N)=O` (single isomer, unassigned) [Compound 35], the IC50 in assay [1] was over 50 nM. Further, in assay [2], the IC50 is under 5 nM, the IC90 was under 75 nM and the “Hap1 MTAP intact/deleted ratio” value is reported as “A (“A” indicates an IC50 ratio greater than or equal to 30 fold)”. In assay [3], this molecule returned an IC50 of under 100 nM.
In the same order, the values of `CCc1cc(NC(=O)C(=O)N2C[C@@H](C)CC[C@@H]2c2ccc3cn(C4CCOCC4)nc3c2)cnc1N` [Compound 17, N-(6-amino-5-ethyl-3-pyridyl)-2-oxo-2-[(2R,5S)-5-methyl-2-(2-tetrahydropyran-4-ylindazol-6-yl)-1-piperidyl]acetamide] are over 50 nM, 5 to 50 nM, under 75 nM, “A (“A” indicates an IC50 ratio greater than or equal to 30 fold)” and under 100 nM.
The molecule `COc1ncc(NC(=O)C(=O)N2C[C@@H](C)CC[C@@H]2c2ccc3sc(C4=CCN(C)CCC4)nc3c2)cc1C(N)=O` [Compound 46, 2-methoxy-5-(2-((2R,5S)-5-methyl-2-(2-(1-methyl-2,5,6,7-tetrahydro-1H-azepin-4-yl)benzo[d]thiazol-5-yl)piperidin-1-yl)-2-oxoacetamido)nicotinamide] showed an IC50 in assay [1] of 5 to 50 nM. Besides, in assay [2], the IC50 is under 5 nM, the IC90 was under 75 nM and the “Hap1 MTAP intact/deleted ratio” value is on record as “B (“B” indicates an IC50 ratio greater than or equal to 15 fold but lower than 30 fold)”. In assay [3], this molecule had an IC50 of under 100 nM.
In the same order, the values of `COc1ncc(NC(=O)C(=O)N2C[C@@H](C)CC[C@@H]2c2ccc3cn(C4CCOCC4)nc3c2)cc1C(N)=O` [Compound 107, 2-methoxy-5-[[2-oxo-2-[(2R,5S)-5-methyl-2-(2-tetrahydropyran-4-ylindazol-6-yl)-1-piperidyl]acetyl]amino]pyridine-3-carboxamide] are over 50 nM, 5 to 50 nM, 75 to 125 nM, “A (“A” indicates an IC50 ratio greater than or equal to 30 fold)” and 100 to 1000 nM.
